# Assay results: patent US20260151398A1, “COMPOUNDS FOR REDUCING CHOLESTEROL AND TREATING LIVER AND KIDNEY DISEASE” (McMaster University, priority 2021, published 2026)
# Entries after “also recorded” stand apart in the source; their conditions may differ.
# Columns and labels:
# PCSK9 [1] = assay: Secreted PCSK9 levels in HepG2 cells (ELISA); type: cell-based, human
# Description: HuH7 and HepG2 cells were routinely grown in complete Dulbecco's Modified Eagle's Medium (Gibco, Thermofisher Scientific) supplemented with 10% fetal bovine serum (Sigma-Aldrich) and 100 U/ml of penicillin and streptomycin (Sigma-Aldrich). […] All cell treatments were carried out for 24 h unless otherwise stated. Cells were transfected with a cocktail consisting of plasmid DNA (1 μg), X-tremeGENE HP (3 μl; Thermofisher Scientific) and opti-MEM (100 μl; Thermofischer Scientific) per 1 ml complete medium containing plated cells. Human PCSK9 was overexpressed using the bicistronic pIRES-EGFP plasmid; calnexin using the mPA-GFP-N1 plasmid. To block the expression of GRP78 and CD36, siGENOME smartpool siRNA was purchased from GE Dharmacon (M-008198-02 and L-010206-00-0005 respectively) and transfected using lipofectamine RNAiMAX as per manufacturer's protocol.
# (§1) Secreted PCSK9 levels were assessed directly in cell culture medium of cells grown in FBS-free medium for 24 h or in the serum isolated from either mice or human subjects. Mouse PCSK9 was measured using the Quantikinine® ELISA kit (#MCP900, R&D Systems) and human PCSK9 using the PCSK9 Quantikinine® ELISA kit (#DCP900, R&D Systems). Serum ApoB levels were also quantified using ELISAs (#DAPB00, R&D Systems). Serum samples were diluted as per manufacturer's instructions.
# CF, however, is a well-characterized compound having several health benefits with few known adverse effects. Achieving an optimal level of PCSK9 inhibition absent of the neuro-excitatory effect of CF, however, may be a challenge for the long-term clinical application of these findings. […] See Table 6 for the structure activity relationships of several other known xanthine-based compounds explored at varying doses in HepG2 cells for 24 h.
# [2] = system: Pcsk9+/+ and Pcsk9−/− mice; settings: CF 8 h
# Description: All animal studies were carried out in 8 h-fasted male wild-type, Pcsk9^−/− or Ampkβ1^−/− mice on the C57BL/6J background. CF (25-100 mg/kg-8 h) and CDN (50 mg/kg) treatments were administered via intraperitoneal injection unless specified otherwise. Primary mouse hepatocytes were isolated using a two-step process with EGTA ([…] in HEPES buffer, Sigma Aldrich) and collagenase (0.05% in HEPES buffer, Sigma Aldrich) in 12-week-old male mice on the C57BL/6J background. Cells were then washed, centrifuged, and plated following isolation in cell strainers. Hepatosure® 100-donor pooled primary human hepatocytes were purchased from Xenotech. Primary hepatocytes were regularly grown in William's E medium (Gibco, Thermo Fisher Scientific) containing 10% fetal bovine serum, 100 IU/ml penicillin, and 100 µg/ml streptomycin.
# cytosolic Ca^2+ levels = assay: Cytosolic Ca2+ in hepatocytes (Fura-2-AM); type: cell-based, human; settings: immortalized HuH7 hepatocytes, listed as CF
# Description: Intracellular Ca^2+ in Huh7 and HepG2 cells was measured using a high-affinity Ca^2+ indicator, Fura-2-AM (Thermofisher Scientific). ER Ca^2+ levels were assessed using the low-affinity Ca^2+ indicator, Mag-Fluo-4, and via transfection of cells with D1ER. The D1ER plasmid encodes an ER-resident calcium binding protein linked to a fluorescent protein and increases in fluorescence intensity upon Ca^2+ binding (7). […] Cells were then washed and incubated with Fura-2-AM (2 μM) or Mag-Fluo-4 (2 μM) for 45 minutes at 37° C. in HBSS containing 20 mM HEPES and 2% pluronic acid v/v (Thermofisher Scientific).
# To test this hypothesis, cytosolic Ca^2+ levels in CF-treated cells were first examined using the high-affinity fluorescent Ca^2+ indicator, Fura-2-AM. […] The fluorescence intensity of cells treated with CF and control agents, TG and CDN, was assessed using a fluorescent spectrophotometer and visualized using a fluorescent microscope (FIG. 6 A). […] ER Ca^2+ content was also assessed indirectly with the high affinity Ca^2+ dye, fura-2-AM (FIG. 6 B).
# LDLR = LDLR / CD36 expression in cultured hepatocytes; type: cell-based, human
# Excerpt: Cells were washed in phosphate-buffered saline (PBS), lysed in 4× SDS-PAGE lysis buffer and separated on 7-10% polyacrylamide gels in denaturing conditions. […] Membranes were then exposed to horse radish peroxidase conjugated secondary antibodies and visualized using EZ-ECL chemiluminescent reagent (Froggabio). Band intensities were quantified using ImageJ software ([…]) against membranes reprobed for housekeeping proteins.
# Slides were then mounted with permafluor and visualized using the EVOS FL colour imaging system at either 20 or 40× magnification.
# (§2) RNA purification/isolation was performed using RNeasy mini kits (Qiagen) and normalized to 2 μg RNA using a NanoDrop® spectrophotometer. Samples were then reverse transcribed into cDNA using Superscript Vilo cDNA Synthesis kit (Thermofisher Scientific). Real-time PCR was executed with Fast SYBR Green (Thermo Fisher Scientific) using the ΔΔct method on the ViiA7 real-time PCR platform (Thermofisher Scientific).
# The uptake and accumulation of DiI-LDL was then quantified using a fluorescent spectrophotometer (Molecular Devices). […] Live-cell staining of the LDLR was also performed in HepG2 cells exposed to DiI-LDL (FIG. 11 D).
# PCSK9 [3] = assay: Plasma PCSK9 in healthy human subjects after oral CF; type: in vivo; settings: fasted healthy subjects, 400 mg orally (~5 mg/kg)
# Description: as §1
# Healthy human subjects between the ages of 22 and 45 underwent fasting for 12 h prior to oral administration of 400 mg CF (˜5 mg/kg). Blood was collected prior to administration and at h 2 and 4 following administration.
# Given that CF is among the most commonly consumed pharmacologically active compounds in the world (8), its ability to affect PCSK9 levels in fasted healthy volunteers was assessed. Serum was collected prior to, as well as 2- and 4-h post CF treatment (400 mg orally; ˜5 mg/kg). Consistent with the observations in cultured hepatocytes and in mice, CF reduced plasma PCSK9 levels in healthy subjects by 25% (n=12) and 21% (n=8) at the 2- and 4-h time points, respectively (FIG. 11 A and B).
# [4] = system: HMGR, SREBP1, hepatocyte nuclear factor 1α; assay: mRNA expression of HMGR, SREBP1 and hepatocyte nuclear factor 1α in hepatocytes; type: cell-based, mouse
# Description: as §2
# Therefore, the effect of CF on TG-; induced SREBP2 activation was examined. […] SREBP2 activity was then examined at the protein level in HuH7 cells transfected with a plasmid encoding GFP driven by the sterol regulatory element (SRE-GFP; FIG. 2E to G). […] GFP expression was also visualized via immunofluorescent staining and quantified using ImageJ Software.
smiles,measurement,setting,value
"Cn1c(=O)c2c(ncn2C)n(C)c1=O [caffeine, 1,3,7-Trimethylxanthine]",PCSK9 secretion from cells transfected with CMV-driven PCSK9 vector,"PCSK9 [1]; HepG2, CF 1 mM, listed as CF",failed to block the secretion of PCSK9; also recorded: does not affect CMV-driven PCSK9 expression
same,PCSK9 secretion in Ca^2+-deficient medium,"PCSK9 [1]; HepG2, Ca^2+-deficient medium 48 h",failed to antagonize PCSK9 secretion
same,hepatic and serum DiI fluorescence in Pcsk9−/− mice,[2],failed to affect these parameters
same,cytosolic Ca^2+ levels,cytosolic Ca^2+ levels,significantly increased cytosolic Ca^2+ levels; also recorded: increases cytosolic Ca^2+ levels
same,LDLR mRNA transcript levels,LDLR; HuH7 and HepG2,reduced mRNA transcript levels of the LDLR
same,"expression of PCSK9-regulated receptors (LDLR, CD36)","LDLR; cultured hepatocytes, CF 200 μM, immunoblots",increased the expression of PCSK9-regulated receptors
same,reduction of plasma PCSK9 levels at 2 h,PCSK9 [3]; 2 h,25%
same,reduction of plasma PCSK9 levels at 4 h,PCSK9 [3]; 4 h,21%
same,SREBP1 expression,[4]; PMH,blocked the expression
same,hepatocyte nuclear factor 1α expression,[4]; absence of TG,did not yield a significant difference
same,HMGR expression,[4]; mouse hepatocytes,blocked the expression
